Assay results reported in publication PMC3688708 (PLoS ONE, 2013).
Counter-ions that a name gives are not always drawn. Like-named read-outs stand apart in the source and are kept apart here.

Legend:
PA63-channel [1] = molecular target: T1, PA63-channel (Bacillus anthracis, UniProt P13423); experiment: biochemical; assay type: binding
PA63-channel [2] = molecular target: T1, PA63-channel; experiment: biochemical; assay type: binding; remark: listed apart in the source
J774A.1 macrophages = assay type: cell-based; conditions: for amount of lysed cells (LF-induced cell lysis after acidic pulse): pH 5
J774A.1 cells [3] = assay type: cell-based
J774A.1 cells [4] = conditions: 100 µM
PA63-channel [5] = molecular target: T1, PA63-channel; conditions: cited from earlier work
PA63-channel [6] = molecular target: T1, PA63-channel; conditions: cited from earlier work; remark: listed apart in the source
[7] = read-out: Half saturation constant KS, pH 6

T1 sequence (P13423 197-764 limits assumed): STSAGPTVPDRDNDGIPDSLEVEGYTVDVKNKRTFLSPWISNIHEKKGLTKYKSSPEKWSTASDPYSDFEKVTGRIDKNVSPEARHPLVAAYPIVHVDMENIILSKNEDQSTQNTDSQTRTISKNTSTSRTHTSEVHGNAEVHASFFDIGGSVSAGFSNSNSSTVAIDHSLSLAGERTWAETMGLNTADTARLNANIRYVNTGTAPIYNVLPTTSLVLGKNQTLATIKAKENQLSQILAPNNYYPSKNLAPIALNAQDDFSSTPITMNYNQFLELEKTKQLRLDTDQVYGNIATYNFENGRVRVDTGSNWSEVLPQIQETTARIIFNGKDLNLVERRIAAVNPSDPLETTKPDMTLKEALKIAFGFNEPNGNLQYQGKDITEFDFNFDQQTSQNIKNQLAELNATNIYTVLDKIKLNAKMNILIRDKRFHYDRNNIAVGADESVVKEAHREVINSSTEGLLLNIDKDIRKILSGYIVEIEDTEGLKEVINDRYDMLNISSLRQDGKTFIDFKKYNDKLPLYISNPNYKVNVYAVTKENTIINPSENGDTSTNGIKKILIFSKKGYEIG

For `O=C(C[n+]1ccccc1Cl)c1ccc([N+](=O)[O-])cc1` [HA 1371], the Kd (PA63-channel [1]; Half saturation constant KS) was 310 µM and the “Stability constant K” value (PA63-channel [1]; pH 6) was 3,200 L/mol.

In the case of `O=[N+]([O-])c1ccc(-c2c[n+]3ccccc3n2-c2ccc(O)cc2)cc1` [HA1383, 1-(4-hydroxyphenyl)-2-(4-nitrophenyl)imidazo[1,2-a]pyridinium tetrafluoroborate], the “K (Lineweaver-Burke plot)” value (PA63-channel [1]) is reported as 740,000 1/M, the “K*” value (PA63-channel [1]) is reported as 749,000 L/mol and the Kd (PA63-channel [1]; Half saturation constant KS) is reported as 1.3 µM. The Kd (PA63-channel [1]; Half saturation constant Ks) was 1.34 µM, the Kd (PA63-channel [2]) was 1.8 µM and the “off-rate k-1” value (PA63-channel [2]) was 352 s⁻¹. For the same compound, the “K (stability constant from ratio k1/k-1)” value (PA63-channel [2]; pH 6) was 560,000 L/mol, the “k1 (on-rate constant)” value (PA63-channel [2]; pH 6) was 2.1×10^8 L/(molxs) and the “k-1 (off-rate constant)” value (PA63-channel [2]; pH 6) was 370 s⁻¹. For the same compound, the “amount of lysed cells (LF-induced cell lysis after acidic pulse)” value (from here on “amount of lysed cells”) (J774A.1 macrophages) was “significantly reduced”, the “protection from lysis by PA63/LF in the medium” value (“protection from lysis by PA63/LF” below) (J774A.1 cells [3]) was “moderate inhibitory effect” and the melting point was 171 to 173 °C. The “cell viability (MTS assay)” value (J774A.1 cells [4]; 7 h) was “no effect on cell viability” and the “cell viability (MTS assay)” value (J774A.1 cells [4]; 24 h) was “slightly decreased”.

For “1-(4-chlorophenyl)-2-(4-bromophenyl)imidazo[1,2-a]pyridinium tetrafluoroborate [HA1568]”, the “K*” value (PA63-channel [1]) was 478,000 L/mol, the “Stability constant K” value (PA63-channel [1]; pH 6) was 478,000 L/mol and the Kd (PA63-channel [1]; pH 6, read-out: Half saturation constant KS) was 2.7 µM. For the same compound, the “off-rate k-1” value (PA63-channel [2]) was 260 s⁻¹, the “on-rate constant k1” value (PA63-channel [2]) was 1.3e+08 M⁻¹ s⁻¹ and the “K (stability constant from ratio k1/k-1)” value (PA63-channel [2]; pH 6) was 511,000 L/mol. The “k1 (on-rate constant)” value (PA63-channel [2]; pH 6) was 1.3×10^8 L/(molxs), the “k-1 (off-rate constant)” value (PA63-channel [2]; pH 6) was 260 s⁻¹ and the Kd (PA63-channel [2]; pH 6, read-out: KS) was 2 µM. The “viability of J774A.1 cells by MTS-assay after acidic shift with PA63/LF” value (J774A.1 macrophages) was “protective effect”, the “amount of lysed cells” value (J774A.1 macrophages) was “significantly reduced” and the “lethal toxin-treated cells that survived in the presence of the substance” value (J774A.1 cells [3]) was “about 80%”. The “protection from lysis by PA63/LF” value (J774A.1 cells [3]) was “protected” and the “cell viability (MTS assay)” value (J774A.1 cells [4]; 24 h) was “no effect on cell viability”.

With `O=c1[nH]c2cccc[n+]2c2ccccc12` [HA 47] the “Stability constant K” value (PA63-channel [1]; pH 6) was 500 L/mol and the Kd (PA63-channel [1]; [7]) was 1990 µM.

With `O=c1c2ccccc2[n+]2ccccc2n1Cc1cccc2ccccc12` [HA 1882] the Kd (PA63-channel [1]; Half saturation constant KS) was 130 µM and the “Stability constant K” value (PA63-channel [1]; pH 6) was 7,900 L/mol.

For `COc1ccc([N+](=O)[O-])cc1-n1nnc2cccc[n+]21` [HA 1212], the “Stability constant K” value (PA63-channel [1]; pH 6) was 7,000 L/mol and the Kd (PA63-channel [1]; [7]) was 150 µM.

For `Cn1c(COc2ccc(Cl)cc2)n[n+]2ccccc12` [HA 1196], the Kd (PA63-channel [1]; Half saturation constant KS) was 260 µM and the “Stability constant K” value (PA63-channel [1]; pH 6) was 3,800 L/mol.

For `Clc1ccc(OCn2cn[n+]3ccccc23)c(Cl)c1` [HA 766], the Kd (PA63-channel [1]; Half saturation constant KS) was 36 µM and the “Stability constant K” value (PA63-channel [1]; pH 6) was 29,400 L/mol.

In the case of `COc1ccc(-n2c(=S)n(-c3ccc([N+](=O)[O-])cc3)c3cccc[n+]32)cc1` [HA 1885], the Kd (PA63-channel [1]; Half saturation constant KS) is reported as 110 µM and the “Stability constant K” value (PA63-channel [1]; pH 6) is reported as 10,800 L/mol.

For `Clc1ccc(OCn2cc[n+]3ccccc23)c(Cl)c1` [HA 486], the “K*” value (PA63-channel [1]) was 38,000 L/mol, the Kd (PA63-channel [1]; Half saturation constant KS) was 27 µM and the “Stability constant K” value (PA63-channel [1]; pH 6) was 38,000 L/mol. The Kd (PA63-channel [2]) was 32 µM, the “off-rate k-1” value (PA63-channel [2]) was 3,500 1/s and the “on-rate constant k1” value (PA63-channel [2]) was 1.2e+08 M⁻¹ s⁻¹. The “K (stability constant from ratio k1/k-1)” value (PA63-channel [2]; pH 6) was 34,000 L/mol, the “k1 (on-rate constant)” value (PA63-channel [2]; pH 6) was 1.2×10^8 L/(molxs) and the “k-1 (off-rate constant)” value (PA63-channel [2]; pH 6) was 3,500 1/s.

Compound `O=[N+]([O-])c1cccc(-n2c(-c3ccc(Br)cc3)c[n+]3ccccc23)c1` (as salt: bromide) [HA1495, 1-(3-nitrophenyl)-2-(4-bromophenyl)imidazo[1,2-a]pyridinium bromide] has a melting point of 176 to 177 °C.

For `Clc1cc(Cl)c(-n2nnc3cccc[n+]32)c(Cl)c1` [HA 728], the Kd (PA63-channel [1]; Half saturation constant KS) was 85 µM and the “Stability constant K” value (PA63-channel [1]; pH 6) was 11,800 L/mol.

With `Brc1ccc(-c2csc3cccc[n+]23)cc1` [HA 112] the Kd (PA63-channel [1]; Half saturation constant KS) was 57 µM and the “Stability constant K” value (PA63-channel [1]; pH 6) was 18,500 L/mol.

In the case of `CCN(CC)CCCC(C)Nc1ccnc2cc(Cl)ccc12` (stereo not shown) [Chloroquine], the “K*” value (PA63-channel [5]) is given as 676,000 L/mol, the “Stability constant K” value (PA63-channel [5]; pH 6) is given as 676,000 L/mol and the Kd (PA63-channel [5]; [7]) is given as 1.5 µM. The Kd (PA63-channel [5]; read-out: Half saturation constant Ks) was 1.43 µM, the “K (stability constant from ratio k1/k-1)” value (PA63-channel [6]) was 1,030,000 L/mol and the “k1 (on-rate constant)” value (PA63-channel [6]) was 3.6×10^8 L/(molxs). The “k-1 (off-rate constant)” value (PA63-channel [6]) was 350 s⁻¹ and the Kd (PA63-channel [6]; read-out: KS) was 0.97 µM.

With `O=[N+]([O-])c1cccc(-n2c(-c3ccc(Br)cc3)c[n+]3ccccc23)c1` [HA1495, 1-(3-nitrophenyl)-2-(4-bromophenyl)imidazo[1,2-a]pyridinium bromide] the Kd (PA63-channel [1]; Half saturation constant KS) was 3.6 µM, the “Stability constant K” value (PA63-channel [1]; pH 6) was 274,000 L/mol and the “amount of lysed cells” value (J774A.1 macrophages) was “significantly reduced”. For the same compound, the “protection from lysis by PA63/LF” value (J774A.1 cells [3]) was “moderate inhibitory effect” and the “cell viability (MTS assay)” value (J774A.1 cells [4]; 24 h) was “no effect on cell viability”.

With `Clc1ccc(-n2nnc3ccc4ccccc4[n+]32)c(Cl)c1` [HA 1221] the Kd (PA63-channel [1]; Half saturation constant KS) was 170 µM and the “Stability constant K” value (PA63-channel [1]; pH 6) was 6,000 L/mol.

For `CCOC(=O)c1ccc(-n2c(-c3ccc(Br)cc3)c[n+]3cccc(O)c23)cc1` [HA 1504], the Kd (PA63-channel [1]; Half saturation constant KS) was 12 µM and the “Stability constant K” value (PA63-channel [1]; pH 6) was 82,900 L/mol.
